From PMC12276312 (Nature Communications, 2025)

T1: MxaF/MxaJ complex (Methylorubrum extorquens, UniProt P16027)
T1 sequence (P16027 28-626): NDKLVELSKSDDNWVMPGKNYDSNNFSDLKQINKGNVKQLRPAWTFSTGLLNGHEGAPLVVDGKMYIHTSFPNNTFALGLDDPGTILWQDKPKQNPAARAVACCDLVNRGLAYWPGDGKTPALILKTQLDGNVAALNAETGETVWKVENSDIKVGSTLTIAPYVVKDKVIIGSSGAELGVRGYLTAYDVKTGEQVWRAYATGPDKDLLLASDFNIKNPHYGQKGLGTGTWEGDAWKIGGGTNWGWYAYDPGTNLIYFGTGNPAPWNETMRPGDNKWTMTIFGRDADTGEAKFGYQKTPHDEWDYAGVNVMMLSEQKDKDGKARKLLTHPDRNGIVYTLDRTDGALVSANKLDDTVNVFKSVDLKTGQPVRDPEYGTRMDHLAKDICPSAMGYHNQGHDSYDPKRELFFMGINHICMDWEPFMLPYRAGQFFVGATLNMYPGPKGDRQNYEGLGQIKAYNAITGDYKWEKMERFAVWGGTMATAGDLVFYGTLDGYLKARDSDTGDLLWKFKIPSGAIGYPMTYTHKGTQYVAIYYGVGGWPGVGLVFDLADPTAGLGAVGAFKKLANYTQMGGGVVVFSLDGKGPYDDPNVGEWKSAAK
T1 sequence (P16028 26-300 partner): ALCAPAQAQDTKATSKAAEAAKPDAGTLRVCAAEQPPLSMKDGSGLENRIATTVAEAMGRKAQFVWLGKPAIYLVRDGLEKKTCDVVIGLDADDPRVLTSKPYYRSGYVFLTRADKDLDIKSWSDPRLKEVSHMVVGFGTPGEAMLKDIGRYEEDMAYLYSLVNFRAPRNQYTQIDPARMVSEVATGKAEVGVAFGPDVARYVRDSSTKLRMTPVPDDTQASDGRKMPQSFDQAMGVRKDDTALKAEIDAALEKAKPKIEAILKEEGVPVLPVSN

B1: MxaF, untagged, co-expressed with MxaJ-His6 for cryo-EM (enzyme, Methylobacterium extorquens AM1, UniProt P16027 28-626, looked up)
chain: NDKLVELSKSDDNWVMPGKNYDSNNFSDLKQINKGNVKQLRPAWTFSTGLLNGHEGAPLVVDGKMYIHTSFPNNTFALGLDDPGTILWQDKPKQNPAARAVACCDLVNRGLAYWPGDGKTPALILKTQLDGNVAALNAETGETVWKVENSDIKVGSTLTIAPYVVKDKVIIGSSGAELGVRGYLTAYDVKTGEQVWRAYATGPDKDLLLASDFNIKNPHYGQKGLGTGTWEGDAWKIGGGTNWGWYAYDPGTNLIYFGTGNPAPWNETMRPGDNKWTMTIFGRDADTGEAKFGYQKTPHDEWDYAGVNVMMLSEQKDKDGKARKLLTHPDRNGIVYTLDRTDGALVSANKLDDTVNVFKSVDLKTGQPVRDPEYGTRMDHLAKDICPSAMGYHNQGHDSYDPKRELFFMGINHICMDWEPFMLPYRAGQFFVGATLNMYPGPKGDRQNYEGLGQIKAYNAITGDYKWEKMERFAVWGGTMATAGDLVFYGTLDGYLKARDSDTGDLLWKFKIPSGAIGYPMTYTHKGTQYVAIYYGVGGWPGVGLVFDLADPTAGLGAVGAFKKLANYTQMGGGVVVFSLDGKGPYDDPNVGEWKSAAK

Tests used:
MxaF/MxaJ complex = biological target: T1, MxaF/MxaJ complex; experiment: isothermal titration calorimetry; assay type: binding
cryo-EM structure = biological target: the molecule itself; experiment: cryo-EM structure

Row | Molecule | Kd (MxaF/MxaJ complex) | stoichiometry N (cryo-EM structure)
1 | O=C(O)c1cc(C(=O)O)c2c(n1)C(=O)C(=O)c1cc(C(=O)O)[nH]c1-2 [PQQ] | ~0.077 µM | 
2 | B1 |  | 2
